According to PubChem BioAssay AID256 (DTP/NCI, 2004):
Toxic doses and inconclusive results are not listed. How the source made its calls: active means survival T/C of 150% or more; inactive means T/C below 125% in these data. Residues, ends and D or L forms follow the SMILES beside them.

System: CD2F1 mice, L1210 leukemia ip, survival T/C
Test: NCI In Vivo Anticancer Drug Screen. Data for tumor model L1210 Leukemia (intraperitoneal) in CD2F1 (CDF1) mice
Conditions: endpoint: mean survival time, higher = longer survival
Outline: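 Vehicle-treated tumor-bearing mice served as controls (C) for compound-treated mice (T). Reported figure is T divided by C.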

[1] = dose: 25.0 mg/kg/injection, schedule: Q04DX003 (ip), vehicle: saline with Tween-80
[2] = dose: 50.0 mg/kg/injection, schedule: Q04DX003 (ip), vehicle: saline with Tween-80
[3] = dose: 100.0 mg/kg/injection, schedule: Q04DX003 (ip), vehicle: saline with Tween-80
[4] = dose: 200.0 mg/kg/injection, schedule: Q04DX003 (ip), vehicle: saline with Tween-80
[5] = dose: 100.0 mg/kg/injection, schedule: Q01DX001 (ip), vehicle: saline
[6] = dose: 200.0 mg/kg/injection, schedule: Q01DX001 (ip), vehicle: saline
[7] = dose: 400.0 mg/kg/injection, schedule: Q04DX003 (ip), vehicle: saline with Tween-80
[8] = dose: 50.0 mg/kg/injection, schedule: Q01DX009 (ip), vehicle: saline with Tween-80
[9] = dose: 100.0 mg/kg/injection, schedule: Q01DX009 (ip), vehicle: saline with Tween-80
[10] = dose: 200.0 mg/kg/injection, schedule: Q01DX009 (ip), vehicle: saline with Tween-80
[11] = dose: 25.0 mg/kg/injection, schedule: Q01DX009 (ip), vehicle: Klucel (hydroxypropylcellulose) (HPC)
[12] = dose: 50.0 mg/kg/injection, schedule: Q01DX009 (ip), vehicle: Klucel (hydroxypropylcellulose) (HPC)
[13] = dose: 100.0 mg/kg/injection, schedule: Q01DX009 (ip), vehicle: Klucel (hydroxypropylcellulose) (HPC)
[14] = dose: 200.0 mg/kg/injection, schedule: Q01DX009 (ip), vehicle: Klucel (hydroxypropylcellulose) (HPC)
[15] = dose: 100.0 mg/kg/injection, schedule: Q01DX001 (ip), vehicle: saline with Tween-80
[16] = dose: 200.0 mg/kg/injection, schedule: Q01DX001 (ip), vehicle: saline with Tween-80
[17] = dose: 400.0 mg/kg/injection, schedule: Q01DX009 (ip), vehicle: saline with Tween-80
[18] = dose: 100.0 mg/kg/injection, schedule: Q04DX003 (ip), vehicle: saline sonified
[19] = dose: 200.0 mg/kg/injection, schedule: Q04DX003 (ip), vehicle: saline sonified
[20] = dose: 400.0 mg/kg/injection, schedule: Q04DX003 (ip), vehicle: saline sonified
[21] = dose: 100.0 mg/kg/injection, schedule: Q04DX003 (ip), vehicle: saline
[22] = dose: 200.0 mg/kg/injection, schedule: Q04DX003 (ip), vehicle: saline
[23] = dose: 400.0 mg/kg/injection, schedule: Q04DX003 (ip), vehicle: saline
[24] = dose: 12.5 mg/kg/injection, schedule: Q01DX009 (ip), vehicle: saline with Tween-80
[25] = dose: 25.0 mg/kg/injection, schedule: Q01DX009 (ip), vehicle: saline with Tween-80
[26] = dose: 400.0 mg/kg/injection, schedule: Q01DX001 (ip), vehicle: saline with Tween-80

Measured: T/C

N=C(N)c1cc(Cl)c(OCc2ccccc2)c(Cl)c1
inactive: [1] 97 % of control | [2] 96 % of control

CCCCCCCCN(c1ccc(I)cc1)S(=O)(=O)c1ccc(C)cc1
inactive: [3] 94 % of control | [4] 94 % of control

C[CH2][Sn]1([CH2]C)[O]CC2OC(n3cc(C)c(=O)[nH]c3=O)CC2[O]1 (stereo not drawn)
inactive: dose: 0.78 mg/kg/injection, schedule: Q01DX005 (ip), vehicle: other 94 % of control | dose: 1.56 mg/kg/injection, schedule: Q01DX005 (ip), vehicle: other 104 % of control | dose: 3.13 mg/kg/injection, schedule: Q01DX005 (ip), vehicle: other 110 % of control | dose: 6.25 mg/kg/injection, schedule: Q01DX005 (ip), vehicle: other 107 % of control

CC/C1=C/N(C=O)CCc2c([nH]c3ccccc23)C(C(=O)OC)(c2cc3c(cc2OC)N(C)C2C(O)(C(=O)OC)C(OC(C)=O)C4(CC)C=CCN5CCC32C54)CC(=O)C1 (stereo not drawn)
inactive: dose: 50.0 mg/kg/injection, schedule: Q01DX001 (ip), vehicle: saline 107 % of control | [5] 102 % of control | [6] 96 % of control

COC(=O)C1C(O)C(C)C(O)OC1C(C)C(O)C(C)/C=C\C=C(/C)C(=O)Nc1c(C)c(OC(C)=O)c2c(c1O)C(=O)C(C)=C1OCOC(/C(C)=C/C(C)=O)=C12 (stereo not drawn)
inactive: dose: 100.0 mg/kg/injection, schedule: Q01DX009 (ip), vehicle: saline 97 % of control | dose: 200.0 mg/kg/injection, schedule: Q01DX009 (ip), vehicle: saline 101 % of control

O=C1OC(=O)c2ccc([N+](=O)[O-])c3c([N+](=O)[O-])ccc1c23
inactive: [3] 92 % of control | [4] 95 % of control | [7] 90 % of control

COC(=O)Cc1nc2ccccc2[nH]c1=O
inactive: [8] 103 % of control | [9] 92 % of control | [10] 100 % of control

COC(=O)c1ccc(-c2ccccc2)cc1
inactive: [11] 96 % of control | [12] 102 % of control | [13] 103 % of control | [14] 105 % of control | dose: 400.0 mg/kg/injection, schedule: Q01DX009 (ip), vehicle: Klucel (hydroxypropylcellulose) (HPC) 102 % of control

ClC1C(c2ccccc2)=C(c2ccccc2)c2ccccc21 (stereo not drawn)
inactive: [15] 87 % of control | [16] 91 % of control | [10] 101 % of control | [17] 98 % of control

Nc1nc2nc3c(nc2c(=O)[nH]1)CN(c1ccc(C(=O)O)cc1)C3=O
inactive: [3] 95 % of control | [4] 97 % of control

COc1ccccc1N/N=C1/CCCNC1=O
inactive: [9] 98 % of control | [10] 101 % of control | [17] 95 % of control

COC(OC)c1[nH]c(=S)[nH]c(=O)c1Cc1cc(C)ccc1C
inactive: [18] 101 % of control | [19] 95 % of control | [20] 101 % of control

CO[C@@]12[C@@H]3N[C@@H]3CN1C1=C(C(=O)C(N3CCOCC3)=C(C)C1=O)[C@@H]2COC(N)=O
inactive: dose: 1.5 mg/kg/injection, schedule: Q01DX001 (ip), vehicle: distilled water + Tween-80 118 % of control | dose: 3.0 mg/kg/injection, schedule: Q01DX001 (ip), vehicle: distilled water + Tween-80 123 % of control | dose: 12.0 mg/kg/injection, schedule: Q01DX001 (ip), vehicle: distilled water + Tween-80 115 % of control

NC(=S)c1cccc2ccccc12
inactive: dose: 100.0 mg/kg/injection, schedule: Q04DX002 (ip), vehicle: Klucel (hydroxypropylcellulose) (HPC) 105 % of control | dose: 200.0 mg/kg/injection, schedule: Q04DX002 (ip), vehicle: Klucel (hydroxypropylcellulose) (HPC) 98 % of control | dose: 400.0 mg/kg/injection, schedule: Q04DX002 (ip), vehicle: Klucel (hydroxypropylcellulose) (HPC) 110 % of control

CC(=O)CC(C)(C)C1CCCCC1
inactive: [11] 93 % of control | [12] 93 % of control | [13] 96 % of control | [14] 93 % of control

O=C(c1ccccn1)c1ccccn1
inactive: [21] 96 % of control | [22] 104 % of control | [23] 102 % of control

Cc1[nH]c(=O)[nH]c(=O)c1NC(=O)c1ccccc1[N+](=O)[O-]
inactive: [24] 98 % of control | dose: 12.5 mg/kg/injection, schedule: Q04DX003 (ip), vehicle: saline sonified 100 % of control | [25] 104 % of control | dose: 25.0 mg/kg/injection, schedule: Q04DX003 (ip), vehicle: saline sonified 103 % of control | [8] 97 % of control | dose: 50.0 mg/kg/injection, schedule: Q04DX003 (ip), vehicle: saline sonified 94 % of control

CC#CC(=O)SCCNC(=O)CCNC(=O)CC(C)(C)C
inactive: [24] 101 % of control | [25] 95 % of control | [1] 106 % of control | [8] 98 % of control | [2] 94 % of control | [9] 88 % of control | [3] 98 % of control

C=CC[n+]1cc2c3ccccc3c(N)cc2c2ccccc21
inactive: dose: 1.56 mg/kg/injection, schedule: Q04DX003 (ip), vehicle: water 106 % of control | dose: 3.13 mg/kg/injection, schedule: Q04DX003 (ip), vehicle: water 108 % of control | dose: 6.25 mg/kg/injection, schedule: Q04DX003 (ip), vehicle: water 98 % of control

COc1ccc(N=C/C=C/c2ccccc2)cc1
inactive: [9] 97 % of control | [18] 96 % of control | [10] 89 % of control | [19] 103 % of control | [17] 90 % of control | [20] 97 % of control

CC(O)C(NC(=O)C(N)CCCN=C(N)N)C(=O)NC(Cc1ccccc1)C(=O)O (stereo not drawn) (H-Arg-Thr-Phe-OH; configuration not given here)
inactive: dose: 12.5 mg/kg/injection, schedule: Q04DX002 (ip), vehicle: saline 98 % of control | dose: 25.0 mg/kg/injection, schedule: Q04DX002 (ip), vehicle: saline 95 % of control | dose: 50.0 mg/kg/injection, schedule: Q04DX002 (ip), vehicle: saline 98 % of control

Clc1ccc(OCc2sc3ccc(Cl)cc3c2CN2CCOCC2)cc1
inactive: [9] 94 % of control | [10] 101 % of control | [17] 92 % of control

N#CNC=Nc1ccccc1
inactive: [21] 95 % of control | [22] 95 % of control | [23] 100 % of control

CC(=O)COc1ccc(C)cc1
inactive: [3] 105 % of control | [4] 96 % of control | [7] 98 % of control

CCCC(C#N)OC(=O)c1ccccc1 (stereo not drawn)
inactive: [25] 96 % of control | [8] 104 % of control | [3] 101 % of control

CC1(C)CC(=O)N(Cc2ccccc2)N1C(=O)c1ccccc1
inactive: [15] 113 % of control | [16] 106 % of control | [26] 101 % of control

CC1=C2C(=O)[C@H]3[C@@H](CC=C4C[C@@H](O)CC[C@@]43C)[C@@H]2CC[C@]12O[C@@H]1C[C@H](C)CN[C@H]1[C@H]2C
inactive: [24] 100 % of control | [25] 93 % of control | [8] 91 % of control | [16] 91 % of control | [26] 88 % of control

CC1CCN(Cc2c(COc3ccc(Cl)cc3)n(C)c3ccccc23)CC1
inactive: [3] 87 % of control | [4] 93 % of control | [7] 94 % of control

CCCCCOS(=O)(=O)c1ccc(Cl)c([N+](=O)[O-])c1
inactive: [3] 98 % of control

CCCN(CCC)S(=O)(=O)c1ccc(NC(=O)Oc2ccc([N+](=O)[O-])cc2)cc1
inactive: [5] 94 % of control | [6] 100 % of control | dose: 400.0 mg/kg/injection, schedule: Q01DX001 (ip), vehicle: saline 95 % of control

N#CCC(=O)O
inactive: dose: 37.5 mg/kg/injection, schedule: Q04DX003 (ip), vehicle: saline 100 % of control | dose: 75.0 mg/kg/injection, schedule: Q04DX003 (ip), vehicle: saline 100 % of control
